Reference: patent publication US20230293518A1 (Edgewise Therapeutics, Inc., priority 2020, published 2023)

What follows are compounds tested against skeletal myofibrils (myosin ATPase) (assay: Skeletal Myofibril ATPase Assay). Conditions: Table 4B.
Type: biochemical
Outline: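 Skeletal myofibril ATPase activity was measured via PK-LDH coupling, following NADH loss at 340 nm every 1.5-2 min for 45 min in PIPES/CaCl2/EGTA pCa buffer, pH 7.0. Max−Min slopes were normalised to 1% DMSO vehicle (100%) and fit to a four-parameter logistic (bottom ≥0) for IC50.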

IC50 [µM] | SMILES
> 100 | O=C(Cn1nc(-c2ccc(OCC(F)(F)F)cc2)ccc1=O)NCc1ccncc1Cl [II-25, N-((3-chloropyridin-4-yl)methyl)-2-(6-oxo-3-(4-(2,2,2-trifluoroethoxy)phenyl)pyridazin-1(6H)-yl)acetamide]
10 to 100 | O=C(Cn1nc(-c2ccc(OCC(F)(F)F)cc2)ccc1=O)NCc1ccc[nH]c1=O [II-26, N-((2-oxo-1,2-dihydropyridin-3-yl)methyl)-2-(6-oxo-3-(4-(2,2,2-trifluoroethoxy)phenyl)pyridazin-1(6H)-yl)acetamide]

Same assay, conditions: Table 4C

IC50 [µM] | SMILES
> 100 | COc1ccc(-c2ccc(=O)n(CC(=O)NCc3ccccn3)n2)cc1 [IIIa-30, 2-(3-(4-methoxyphenyl)-6-oxopyridazin-1(6H)-yl)-N-(pyridin-2-ylmethyl)acetamide]
> 100 | COc1ccc(-c2ccc(=O)n(CC(=O)NCc3cnoc3)n2)cc1 [IIIa-31, N-(isoxazol-4-ylmethyl)-2-(3-(4-methoxyphenyl)-6-oxopyridazin-1(6H)-yl)acetamide]
> 100 | COc1ccc(-c2ccc(=O)n(CC(=O)NCc3cnn(C)c3)n2)cc1 [IIIa-32, 2-(3-(4-methoxyphenyl)-6-oxopyridazin-1(6H)-yl)-N-((1-methyl-1H-pyrazol-4-yl)methyl) acetamide]
> 100 | COc1ccc(-c2ccc(=O)n(CC(=O)NCc3nccn3C)n2)cc1 [IIIa-33, 2-(3-(4-methoxyphenyl)-6-oxopyridazin-1(6H)-yl)-N-((1-methyl-1H-imidazol-2-yl)methyl) acetamide]
> 100 | COc1ccc(-c2ccc(=O)n(CC(=O)NCc3ccno3)n2)cc1 [IIIa-34, N-(isoxazol-5-ylmethyl)-2-(3-(4-methoxyphenyl)-6-oxopyridazin-1(6H)-yl)acetamide]
< 10 | COc1ccc(-c2ccc(=O)n(CC(=O)NCc3ccccc3Cl)n2)cc1 [IIIb-1, N-(2-chlorobenzyl)-2-(3-(4-methoxyphenyl)-6-oxopyridazin-1(6H)-yl)acetamide]
< 10 | COc1ccc(-c2ccc(=O)n(CC(=O)Nc3cccc4[nH]ccc34)n2)c(F)c1 [IIIb-2, 2-(3-(2-fluoro-4-methoxyphenyl)-6-oxopyridazin-1(6H)-yl)-N-(1H-indol-4-yl)acetamide]
< 10 | COc1ccc(-c2ccc(=O)n(CC(=O)Nc3cccc4[nH]ccc34)n2)cc1 [IIIb-3, N-(1H-indol-4-yl)-2-(3-(4-methoxyphenyl)-6-oxopyridazin-1(6H)-yl)acetamide]
< 10 | COc1ccc(-c2ccc(=O)n(CC(=O)Nc3cccc4c3ccn4C)n2)cc1 [IIIb-4, 2-(3-(4-methoxyphenyl)-6-oxopyridazin-1(6H)-yl)-N-(1-methyl-1H-indol-4-yl)acetamide]
< 10 | CC(C)c1cccc(NC(=O)Cn2nc(-c3ccc4c(c3)OCCCO4)ccc2=O)c1 [IIIb-5, 2-(3-(3,4-dihydro-2H-benzo[b][1,4]dioxepin-7-yl)-6-oxopyridazin-1(6H)-yl)-N-(3-isopropylphenyl)acetamide]
< 10 | O=C(Cn1nc(-c2ccc3c(c2)OCCO3)ccc1=O)Nc1ccccc1F [IIIb-6, 2-(3-(2,3-dihydrobenzo[b][1,4]dioxin-6-yl)-6-oxopyridazin-1(6H)-yl)-N-(2-fluorophenyl)acetamide]
< 10 | COc1ccc(-c2ccc(=O)n(CC(=O)NCCC3=CCCCC3)n2)c(F)c1 [IIIb-7, N-(2-(cyclohex-1-en-1-yl)ethyl)-2-(3-(2-fluoro-4-methoxyphenyl)-6-oxopyridazin-1(6H)-yl)acetamide]
< 10 | COc1ccc(-c2ccc(=O)n(CC(=O)NC3Cc4ccccc4C3)n2)cc1 [IIIb-8, N-(2,3-dihydro-1H-inden-2-yl)-2-(3-(4-methoxyphenyl)-6-oxopyridazin-1(6H)-yl)acetamide]

The remaining lines, values behind:

SMILES | IC50 [µM]
CCOc1ccc(-c2ccc(=O)n(CC(=O)NCc3ccccc3Cl)n2)cc1 [IIIa-1, N-(2-chlorobenzyl)-2-(3-(4-ethoxyphenyl)-6-oxopyridazin-1(6H)-yl)acetamide] | < 10
CC(C)Oc1ccc(-c2ccc(=O)n(CC(=O)NCc3ccccc3Cl)n2)cc1 [IIIa-2, N-(2-chlorobenzyl)-2-(3-(4-isopropoxyphenyl)-6-oxopyridazin-1(6H)-yl)acetamide] | < 10
CCNC(=O)Cn1nc(-c2ccc(OC)cc2)ccc1=O [IIIa-3, N-ethyl-2-(3-(4-methoxyphenyl)-6-oxopyridazin-1(6H)-yl)acetamide] | < 10
COc1ccc(-c2ccc(=O)n(CC(=O)NCC3CCCCC3)n2)cc1 [IIIa-4, N-(cyclohexylmethyl)-2-(3-(4-methoxyphenyl)-6-oxopyridazin-1(6H)-yl)acetamide] | < 10
COc1ccc(-c2ccc(=O)n(CC(=O)NCCc3ccccc3)n2)cc1 [IIIa-5, 2-(3-(4-methoxyphenyl)-6-oxopyridazin-1(6H)-yl)-N-phenethylacetamide] | < 10
CCOc1ccc(-c2ccc(=O)n(CC(=O)NC(C)C)n2)cc1 [IIIa-6, 2-(3-(4-ethoxyphenyl)-6-oxopyridazin-1(6H)-yl)-N-isopropylacetamide] | < 10
COc1ccc(-c2ccc(=O)n(CC(=O)NCc3cc(F)ccc3Cl)n2)cc1 [IIIa-7, N-(2-chloro-5-fluorobenzyl)-2-(3-(4-methoxyphenyl)-6-oxopyridazin-1(6H)-yl)acetamide] | < 10
COc1ccc(-c2ccc(=O)n(CC(=O)NCc3cccc(Cl)c3)n2)cc1 [IIIa-8, N-(3-chlorobenzyl)-2-(3-(4-methoxyphenyl)-6-oxopyridazin-1(6H)-yl)acetamide] | < 10
COc1ccc(-c2ccc(=O)n(CC(=O)NC(C)(C)c3ccccc3)n2)cc1 [IIIa-9, 2-(3-(4-methoxyphenyl)-6-oxopyridazin-1(6H)-yl)-N-(2-phenylpropan-2-yl)acetamide] | < 10
COc1ccc(-c2ccc(=O)n(CC(=O)NCc3cccc(C)c3)n2)cc1 [IIIa-10, 2-(3-(4-methoxyphenyl)-6-oxopyridazin-1(6H)-yl)-N-(3-methylbenzyl) acetamide] | < 10
COc1ccc(-c2ccc(=O)n(CC(=O)NCc3ccccc3C(F)(F)F)n2)cc1 [IIIa-11, 2-(3-(4-methoxyphenyl)-6-oxopyridazin-1(6H)-yl)-N-(2-(trifluoromethyl)benzyl)acetamide] | < 10
COc1ccc(-c2ccc(=O)n(CC(=O)NCc3ccc(Cl)cc3Cl)n2)cc1 [IIIa-12, N-(2,4-dichlorobenzyl)-2-(3-(4-methoxyphenyl)-6-oxopyridazin-1(6H)-yl)acetamide] | < 10
COc1ccc(-c2ccc(=O)n(CC(=O)NCc3ccccc3Cl)n2)c(F)c1 [IIIa-13, N-(2-chlorobenzyl)-2-(3-(2-fluoro-4-methoxyphenyl)-6-oxopyridazin-1(6H)-yl)acetamide] | < 10
COc1ccc(-c2ccc(=O)n(CC(=O)NCc3ccc(C)cc3)n2)cc1 [IIIa-15, 2-(3-(4-methoxyphenyl)-6-oxopyridazin-1(6H)-yl)-N-(4-methylbenzyl) acetamide] | < 10
COc1ccc(-c2ccc(=O)n(CC(=O)NCc3ccccc3C)n2)cc1 [IIIa-16, 2-(3-(4-methoxyphenyl)-6-oxopyridazin-1(6H)-yl)-N-(2-methylbenzyl) acetamide] | < 10
COc1ccc(-c2ccc(=O)n(CC(=O)NCc3ccc(Cl)cc3)n2)cc1 [IIIa-17, N-(4-chlorobenzyl)-2-(3-(4-methoxyphenyl)-6-oxopyridazin-1(6H)-yl)acetamide] | < 10
CCc1ccc(-c2ccc(=O)n(CC(=O)NCc3ccccc3Cl)n2)cc1 [IIIa-18, N-(2-chlorobenzyl)-2-(3-(4-ethylphenyl)-6-oxopyridazin-1(6H)-yl)acetamide] | < 10
CCNC(=O)Cn1nc(-c2ccc(C3CC3)cc2)ccc1=O [IIIa-19, 2-(3-(4-cyclopropylphenyl)-6-oxopyridazin-1(6H)-yl)-N-ethylacetamide] | < 10
COc1ccc(-c2ccc(=O)n(CC(=O)NC3(c4ccccc4Cl)CC3)n2)cc1 [IIIa-20, N-(1-(2-chlorophenyl)cyclopropyl)-2-(3-(4-methoxyphenyl)-6-oxopyridazin-1(6H)-yl)acetamide] | 10 to 100
CNC(=O)Cn1nc(-c2ccc(OC)cc2)ccc1=O [IIIa-21, 2-(3-(4-methoxyphenyl)-6-oxopyridazin-1(6H)-yl)-N-methylacetamide] | 10 to 100
COc1ccc(-c2ccc(=O)n(CC(=O)NCc3ccccc3Cl)n2)c(C)c1 [IIIa-22, N-(2-chlorobenzyl)-2-(3-(4-methoxy-2-methylphenyl)-6-oxopyridazin-1(6H)-yl)acetamide] | 10 to 100
COc1ccc(-c2ccc(=O)n(CC(=O)NCc3ccccc3Cl)n2)cc1C [IIIa-23, N-(2-chlorobenzyl)-2-(3-(4-methoxy-3-methylphenyl)-6-oxopyridazin-1(6H)-yl)acetamide] | 10 to 100
COc1ccc(-c2ccc(=O)n(CC(=O)NCc3ccccc3Cl)n2)cc1F [IIIa-24, N-(2-chlorobenzyl)-2-(3-(3-fluoro-4-methoxyphenyl)-6-oxopyridazin-1(6H)-yl)acetamide] | 10 to 100
COc1ccc(-c2ccc(=O)n(CC(=O)NC(C)c3ccccc3Cl)n2)cc1 (stereo not shown) [IIIa-25, N-(1-(2-chlorophenyl)ethyl)-2-(3-(4-methoxyphenyl)-6-oxopyridazin-1(6H)-yl)acetamide] | 10 to 100
COc1ccc(-c2ccc(=O)n(CC(=O)NCc3ccon3)n2)cc1 [IIIa-26, N-(isoxazol-3-ylmethyl)-2-(3-(4-methoxyphenyl)-6-oxopyridazin-1(6H)-yl)acetamide] | 10 to 100
CCNC(=O)Cn1nc(-c2ccc(OCC3(F)COC3)cc2)ccc1=O [IIIa-27, N-ethyl-2-(3-(4-((3-fluorooxetan-3-yl)methoxy)phenyl)-6-oxopyridazin-1(6H)-yl)acetamide] | 10 to 100
COc1ccc(-c2ccc(=O)n(CC(=O)NCc3cnccn3)n2)cc1 [IIIa-28, 2-(3-(4-methoxyphenyl)-6-oxopyridazin-1(6H)-yl)-N-(pyrazin-2-ylmethyl) acetamide] | > 100
COc1ccc(-c2ccc(=O)n(CC(=O)NCC3CCOCC3)n2)cc1 [IIIa-29, 2-(3-(4-methoxyphenyl)-6-oxopyridazin-1(6H)-yl)-N-((tetrahydro-2H-pyran-4-yl)methyl) acetamide] | > 100
